In patent publication US11161854B2, “Indazolyl-spiro[2.2]pentane-carbonitrile derivatives as LRRK2 inhibitors, pharmaceutical compositions, and uses thereof” (Merck Sharp & Dohme Corp., priority 2017, dated 2021):

Target: GST-tagged truncated human mutant G2019S LRRK2 (Homo sapiens (Human), UniProt Q5S007, G2019S)
Experiment: LRRK2 G2019S Km ATP LanthaScreen Assay
Type: biochemical
Details: 134 μM ATP (Km ATP); fluorescein-labeled LRRKtide substrate; mean IC50 values

Sequence of GST-tagged truncated human mutant G2019S LRRK2 (Q5S007 970-2527 G2019S): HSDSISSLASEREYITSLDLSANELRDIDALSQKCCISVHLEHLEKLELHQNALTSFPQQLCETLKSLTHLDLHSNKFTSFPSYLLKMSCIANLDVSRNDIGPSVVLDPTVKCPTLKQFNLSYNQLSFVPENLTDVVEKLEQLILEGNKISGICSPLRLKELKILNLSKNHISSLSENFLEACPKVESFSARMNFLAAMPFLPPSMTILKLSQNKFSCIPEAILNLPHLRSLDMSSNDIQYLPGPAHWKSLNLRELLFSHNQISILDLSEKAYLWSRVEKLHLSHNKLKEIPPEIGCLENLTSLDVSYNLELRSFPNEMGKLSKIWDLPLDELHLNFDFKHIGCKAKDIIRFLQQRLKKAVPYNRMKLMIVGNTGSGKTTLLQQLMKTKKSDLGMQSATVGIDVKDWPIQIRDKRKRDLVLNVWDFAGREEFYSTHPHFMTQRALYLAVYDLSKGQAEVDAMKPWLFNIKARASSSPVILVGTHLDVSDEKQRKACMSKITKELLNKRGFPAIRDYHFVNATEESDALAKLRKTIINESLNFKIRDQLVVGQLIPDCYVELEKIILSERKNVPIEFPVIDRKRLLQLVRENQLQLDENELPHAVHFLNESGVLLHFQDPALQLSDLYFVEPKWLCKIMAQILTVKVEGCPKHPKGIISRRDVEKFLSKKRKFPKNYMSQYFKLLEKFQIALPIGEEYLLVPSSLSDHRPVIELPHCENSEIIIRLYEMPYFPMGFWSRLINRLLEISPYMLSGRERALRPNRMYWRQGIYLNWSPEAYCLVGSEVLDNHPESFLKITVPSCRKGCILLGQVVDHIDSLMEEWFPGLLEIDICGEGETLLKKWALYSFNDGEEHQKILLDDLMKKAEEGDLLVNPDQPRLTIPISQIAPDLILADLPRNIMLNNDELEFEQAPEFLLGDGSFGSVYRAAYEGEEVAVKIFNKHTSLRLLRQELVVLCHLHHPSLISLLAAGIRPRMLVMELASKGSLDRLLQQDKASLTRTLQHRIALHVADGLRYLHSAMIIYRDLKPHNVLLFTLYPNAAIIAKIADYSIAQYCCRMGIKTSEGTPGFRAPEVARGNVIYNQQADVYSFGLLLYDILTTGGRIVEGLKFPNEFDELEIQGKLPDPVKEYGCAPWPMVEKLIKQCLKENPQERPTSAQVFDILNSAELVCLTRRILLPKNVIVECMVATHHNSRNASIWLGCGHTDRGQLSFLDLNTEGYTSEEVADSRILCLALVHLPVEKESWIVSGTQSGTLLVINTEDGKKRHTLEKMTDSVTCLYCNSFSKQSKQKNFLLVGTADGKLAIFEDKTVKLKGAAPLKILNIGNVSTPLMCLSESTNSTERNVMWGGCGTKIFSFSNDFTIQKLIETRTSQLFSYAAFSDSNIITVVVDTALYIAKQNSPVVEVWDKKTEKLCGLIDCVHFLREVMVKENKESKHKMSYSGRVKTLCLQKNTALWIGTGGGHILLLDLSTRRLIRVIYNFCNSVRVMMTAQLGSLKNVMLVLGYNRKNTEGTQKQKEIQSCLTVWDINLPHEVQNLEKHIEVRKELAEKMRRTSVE

SMILES	IC50
Cc1nc(N2CCN(C3(C)COC3)CC2)cc(-n2ncc3ccc([C@]4(C#N)CC45CC5)cc32)n1 [Example 11.1, (S)-1-(1-(2-methyl-6-(4-(3-methyloxetan-3-yl)piperazin-1-yl)pyrimidin-4-yl)-1H-indazol-6-yl)spiro[2.2]pentane-1-carbonitrile]	0.6 nM
Cc1nc(N2CC3(C2)CN(C2COC2)C3)cc(-n2ncc3ccc([C@]4(C#N)CC45CC5)cc32)n1 [Example 11.3]	454 nM
Cc1nc(N2C[C@@H]3C[C@H]2CN3C2(C)COC2)cc(-n2ncc3ccc([C@]4(C#N)CC45CC5)cc32)n1 [Example 11.4]	8.6 nM
Cc1cc(-n2ncc3ccc([C@]4(C#N)CC45CC5)cc32)cc(C)n1 [Example 11.5]	7.8 nM
Cc1cc(-n2ncc3ccc([C@]4(C#N)CC45CC5)cc32)ncn1 [Example 11.7]	7.4 nM
Cc1nc(N2CC3(CN(CC(F)(F)F)C3)C2)cc(-n2ncc3ccc(C4(C#N)CC45CC5)cc32)n1 (stereo not drawn) [Example 12.2]	28.4 nM
